Each structure is given as a SMILES string.

The target of this test is human NAMPT (Homo sapiens (Human), UniProt P43490). The experiment in a line: NMN fluorescence biochemical assay (human recombinant NAMPT enzyme assay). The method, boiled down: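 Activation of recombinant human NAMPT (6 nM) was tested with 2.5 mM ATP, 20 μM PRPP and 150 μM nicotinamide in 50 mM HEPES pH 7.2 for 60 min at ambient temperature. NMN was derivatized with acetophenone/KOH/formic acid and read by fluorescence (355/460 nm) after 40 min.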
Chain of human NAMPT (P43490 whole entry): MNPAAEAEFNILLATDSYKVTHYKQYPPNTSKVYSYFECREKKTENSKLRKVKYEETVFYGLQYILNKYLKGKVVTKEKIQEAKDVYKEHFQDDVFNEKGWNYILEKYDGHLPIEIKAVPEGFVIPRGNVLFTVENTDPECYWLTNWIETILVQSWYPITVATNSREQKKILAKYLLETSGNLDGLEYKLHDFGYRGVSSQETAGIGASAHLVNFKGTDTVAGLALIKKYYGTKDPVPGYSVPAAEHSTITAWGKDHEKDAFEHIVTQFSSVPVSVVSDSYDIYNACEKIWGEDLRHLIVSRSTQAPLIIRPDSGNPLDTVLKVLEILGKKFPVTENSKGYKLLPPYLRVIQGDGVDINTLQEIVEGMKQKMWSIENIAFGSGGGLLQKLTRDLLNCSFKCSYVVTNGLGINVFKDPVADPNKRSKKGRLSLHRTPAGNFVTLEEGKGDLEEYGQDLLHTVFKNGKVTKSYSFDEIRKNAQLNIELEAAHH
Take `COc1cc(C(=O)NCc2ccc(NC(=O)OCc3ccc(Cl)cc3)cc2)cnc1C` [Compound 195, (4-chlorophenyl)methyl N-(4-{[(5-methoxy-6-methylpyridin-3-yl)formamido]methyl}phenyl)carbamate]: the “AC1.4 Human” value is 1.73 µM and the EC50 (commonly the concentration that produces a half-maximal response) was 8.13 µM.
For the molecule `O=C(Nc1ccc(Cc2ccncc2)cc1)OCc1ccc(C(F)F)cc1` [Compound 196, 4-(difluoromethyl)benzyl (4-(pyridin-4-ylmethyl)phenyl)carbamate], the “AC1.4 Human” value amounted to 1.75 µM and the EC50 amounted to 7.22 µM.
For `Cc1n[nH]cc1C(=O)N(C)Cc1ccc(NC(=O)OCc2ccc(Cl)cc2)cc1` [Compound 197, (4-chlorophenyl)methyl N-(4-{[N-methyl-1-(3-methyl-1H-pyrazol-4-yl)formamido]methyl}phenyl)carbamate], in that order: 1.75 µM and 11.8 µM.
With `O=C(Nc1ccc(C2CCN(C3COC3)CC2)cc1)OCc1ccc(Cl)cc1` [Compound 198, (4-chlorophenyl)methyl N-{4-[1-(oxetan-3-yl)piperidin-4-yl]phenyl}carbamate], the “AC1.4 Human” value amounted to 1.76 µM and the EC50 is 8.59 µM.
`Cc1ccc(NC(=O)Cc2ccc(NC(=O)OCc3ccc(Cl)cc3)cc2)cn1` [Compound 199, (4-chlorophenyl)methyl N-(4-{[(6-methylpyridin-3-yl)carbamoyl]methyl}phenyl)carbamate]: the “AC1.4 Human” value was found to be 1.77 µM and the EC50 was 5.28 µM.
For `Cc1cc(C(=O)N[C@@H](C)c2ccc(NC(=O)OCc3ccc(Cl)cc3)cc2)on1` [Compound 200, 4-chlorobenzyl (S)-(4-(1-(3-methylisoxazole-5-carboxamido)ethyl)phenyl)carbamate], the “AC1.4 Human” value is 1.78 µM and the EC50 was determined as 2.12 µM.
In the case of `O=C(Nc1ccc(Cc2ccncc2)cc1)OCc1cncs1` [Compound 201, thiazol-5-ylmethyl (4-(pyridin-4-ylmethyl)phenyl)carbamate], the “AC1.4 Human” value is 1.78 µM and the EC50 was 26.4 µM.
For `O=C(Nc1ccc(CC(=O)N2CCC[C@H]2CO)cc1)OCc1ccc(Cl)cc1` [Compound 202, (4-chlorophenyl)methyl N-(4-{2-[(2S)-2-(hydroxymethyl)pyrrolidin-1-yl]-2-oxoethyl}phenyl)carbamate], in that order: 1.82 µM and 24.5 µM.
On to `Cc1nn(C)c(C(=O)NCc2ccc(NC(=O)OCc3ccc(Cl)cc3)cc2)c1F` [Compound 203, (4-chlorophenyl)methyl N-(4-{[(4-fluoro-2,5-dimethylpyrazol-3-yl)formamido]methyl}phenyl)carbamate], for which the “AC1.4 Human” value was determined as 1.82 µM and the EC50 amounted to 7.14 µM.
Take `CN1CC(=O)NC[C@@H]1c1ccc(NC(=O)OCc2ccc(C(F)F)cc2)cc1` [Compound 204, 4-(difluoromethyl)benzyl (S)-(4-(1-methyl-5-oxopiperazin-2-yl)phenyl)carbamate]: the “AC1.4 Human” value was 1.83 µM and the EC50 was found to be 21.1 µM.
Consider `Cn1nccc1C(=O)NCc1ccc(NC(=O)OCc2ccc(Cl)cc2)cc1` [Compound 205, (4-chlorophenyl)methyl N-(4-{[(2-methylpyrazol-3-yl)formamido]methyl}phenyl)carbamate], for which the “AC1.4 Human” value was 1.84 µM and the EC50 was 10.1 µM.
Take `Cc1n[nH]c(C)c1C(=O)N(C)Cc1ccc(NC(=O)OCc2ccc(Cl)cc2)cc1` [Compound 206, (4-chlorophenyl)methyl N-(4-{[1-(3,5-dimethyl-1H-pyrazol-4-yl)-N-methylformamido]methyl}phenyl)carbamate]: the “AC1.4 Human” value stood at 1.85 µM and the EC50 was found to be 14.7 µM.
`O=C(Nc1ccc(CNC(=O)c2ncccc2F)cc1)OCc1ccc(Cl)cc1` [Compound 207, (4-chlorophenyl)methyl N-(4-{[(3-fluoropyridin-2-yl)formamido]methyl}phenyl)carbamate]: the “AC1.4 Human” value amounted to 1.85 µM and the EC50 was determined as 9.34 µM.
Turning to `CCc1cc(C(=O)NCc2ccc(NC(=O)OCc3ccc(Cl)cc3)cc2)n(C)n1` [Compound 208, (4-chlorophenyl)methyl N-(4-{[(5-ethyl-2-methylpyrazol-3-yl)formamido]methyl}phenyl)carbamate], the “AC1.4 Human” value came to 1.87 µM and the EC50 turned out to be 17.4 µM.
Consider `Cc1ncoc1C(=O)NCc1ccc(NC(=O)OCc2ccc(Cl)cc2)cc1` [Compound 209, (4-chlorophenyl)methyl N-(4-{[(4-methyl-1,3-oxazol-5-yl)formamido]methyl}phenyl)carbamate], for which the “AC1.4 Human” value came to 1.88 µM and the EC50 was 21.6 µM.
On to `C[C@H](NC(=O)c1ccnn1C1CCC1)c1ccc(NC(=O)OCc2ccc(Cl)cc2)cc1` [Compound 210, (4-chlorophenyl)methyl N-{4-[(1S)-1-[(2-cyclobutylpyrazol-3-yl)formamido]ethyl]phenyl}carbamate], for which the “AC1.4 Human” value was determined as 1.91 µM and the EC50 stood at 3.82 µM.
The matching figures for `Cc1nc(C)c(C(=O)NCc2ccc(NC(=O)OCc3ccc(Cl)cc3)cc2)o1` [Compound 211, (4-chlorophenyl)methyl N-(4-{[(2,4-dimethyl-1,3-oxazol-5-yl)formamido]methyl}phenyl)carbamate]: 1.91 µM and 10.6 µM.
In the case of `O=C(Nc1ccc(CC(=O)N2CCC(F)CC2)cc1)OCc1ccc(Cl)cc1` [Compound 212, (4-chlorophenyl)methyl N-{4-[2-(4-fluoropiperidin-1-yl)-2-oxoethyl]phenyl}carbamate], the “AC1.4 Human” value was determined as 1.93 µM and the EC50 came out at 10.2 µM.
In the case of `COc1nc(C)ccc1C(=O)N[C@@H](C)c1ccc(NC(=O)OCc2ccc(Cl)cc2)cc1` [Compound 213, (4-chlorophenyl)methyl N-{4-[(1S)-1-[(2-methoxy-6-methylpyridin-3-yl)formamido]ethyl]phenyl}carbamate], the “AC1.4 Human” value amounted to 1.95 µM and the EC50 stood at 2.92 µM.
The matching figures for `Cc1ccc(C(=O)NCc2ccc(NC(=O)OCc3ccc(Cl)cc3)cc2)nc1` [Compound 214, (4-chlorophenyl)methyl N-(4-{[(5-methylpyridin-2-yl)formamido]methyl}phenyl)carbamate]: 1.96 µM and 9.59 µM.
For `CC1CCCN1C(=O)Cc1ccc(NC(=O)OCc2ccc(Cl)cc2)cc1` (stereo not shown) [Compound 215, (4-chlorophenyl)methyl N-{4-[2-(2-methylpyrrolidin-1-yl)-2-oxoethyl]phenyl}carbamate], in that order: 1.96 µM and 8.35 µM.
`O=C(Nc1ccc(Cc2ccncc2)cc1)OCc1ccc(Cl)cc1` [Compound 216, 4-chlorobenzyl (4-(pyridin-4-ylmethyl)phenyl)carbamate]: the “AC1.4 Human” value turned out to be 1.98 µM and the EC50 amounted to 5.81 µM.
For the molecule `COc1ccc(COC(=O)Nc2ccc(COC3CCN(C(C)=O)CC3)cc2)cc1` [Compound 217, 4-methoxybenzyl (4-(((1-acetylpiperidin-4-yl)oxy)methyl)phenyl)carbamate], the “AC1.4 Human” value worked out at 1.98 µM and the EC50 is 24.4 µM.
On to `Cc1ncc(C(=O)N[C@@H](C)c2ccc(NC(=O)OCc3ccc(Cl)cc3)cc2)o1` [Compound 218, (4-chlorophenyl)methyl N-{4-[(1S)-1-[(2-methyl-1,3-oxazol-5-yl)formamido]ethyl]phenyl}carbamate], for which the “AC1.4 Human” value was 1.99 µM and the EC50 turned out to be 9.06 µM.
Consider `O=C(Nc1ccc(Cc2ccncc2)cc1)OCc1ccns1` [Compound 219, isothiazol-5-ylmethyl (4-(pyridin-4-ylmethyl)phenyl)carbamate], for which the “AC1.4 Human” value worked out at 2.03 µM and the EC50 is 20.6 µM.
For `O=C(Nc1ccc(CC(=O)N2CCOCC2)cc1)OCc1ccc(Cl)cc1` [Compound 220, (4-chlorophenyl)methyl N-{4-[2-(morpholin-4-yl)-2-oxoethyl]phenyl}carbamate], in that order: 2.03 µM and 32.5 µM.
Regarding `O=C(Cc1ccc(NC(=O)OCc2ccc(Cl)cc2)cc1)N[C@H]1CC[C@H](OC(F)F)CC1` [Compound 221, (4-chlorophenyl)methyl N-[4-({[(1r,4r)-4-(difluoromethoxy)cyclohexyl]carbamoyl}methyl)phenyl]carbamate], the “AC1.4 Human” value stood at 2.04 µM and the EC50 came to 2.16 µM.
Consider `CS(=O)(=O)C1CN(Cc2ccc(NC(=O)OCc3ccc(Cl)cc3)cc2)C1` [Compound 222, (4-chlorophenyl)methyl N-{4-[(3-methanesulfonylazetidin-1-yl)methyl]phenyl}carbamate], for which the “AC1.4 Human” value was 2.05 µM and the EC50 turned out to be 27.6 µM.
The matching figures for `O=C(Nc1ccc(CN2CCN(C3COC3)CC2)cc1)OCc1ccc(Cl)cc1` [Compound 223, (4-chlorophenyl)methyl N-(4-{[4-(oxetan-3-yl)piperazin-1-yl]methyl}phenyl)carbamate]: 2.05 µM and 17.6 µM.
Regarding `C[C@H](NC(=O)Cc1ncco1)c1ccc(NC(=O)OCc2ccc(Cl)cc2)cc1` [Compound 224, 4-chlorobenzyl (S)-(4-(1-(2-(oxazol-2-yl)acetamido)ethyl)phenyl)carbamate], the “AC1.4 Human” value was 2.08 µM and the EC50 stood at 10.1 µM.
For `Cc1cc(C(=O)NCc2ccc(NC(=O)OCc3ccc(Cl)cc3)cc2)n(C)n1` [Compound 225, (4-chlorophenyl)methyl N-(4-{[(2,5-dimethylpyrazol-3-yl)formamido]methyl}phenyl)carbamate], in that order: 2.08 µM and 9.1 µM.
For `O=C(Nc1ccc(CNC(=O)c2cnccn2)cc1)OCc1ccc(Cl)cc1` [Compound 226, (4-chlorophenyl)methyl N-{4-[(pyrazin-2-ylformamido)methyl]phenyl}carbamate], in that order: 2.09 µM and 6.14 µM.

The values are drawn from patent US20240279215A1 (Cytokinetics, Incorporated, priority 2022, published 2024).
